Laboratory results from article PMC10254843, “Discovery of New 2-Phenylamino-3-acyl-1,4-naphthoquinones as Inhibitors of Cancer Cells Proliferation: Searching for Intra-Cellular Targets Playing a Role in Cancer Cells Survival” (Molecules, 2023).

Experiments:
[1] = system: T24 (Urinary bladder cancer cells); experiment: MTT cell survival assay, T24 urinary bladder cancer cells; type: cell-based; details: Homo sapiens; MTT test; cells incubated at 37 °C for 48 h (Table 1 footnote); mean ± SEM, n = 3
Description: (§1) Human cancer cell lines from bladder (T24), prostate (DU–145), breast (MCF–7) and non-tumor HEK-293 cells were obtained from the American Type Culture Collection (ATCC, Manassas, VA, USA). The cultures were maintained at a density of 1–2 × 10^5 cells/mL and the medium was changed at 48- and 72-h intervals. They were cultured in high-glucose Dulbecco’s modified Eagle medium (Gibco, Grand Island, NY, USA) supplemented with 10% fetal calf serum, penicillin (100 U/mL) and streptomycin (100 μg/mL). All cultures were kept at 37 °C in 95% air/5% CO2 at 100% humidity. Phosphate-buffered saline (PBS) was purchased from Gibco. Cells were incubated at the indicated times at 37 °C with or without compounds 1–14 at various concentrations.
(§2) The cytotoxicity of the compounds 1–14 was assessed by following the reduction of MTT (3-(4,5-Dimethylthiazol-2-yl)-2,5-diphenyltetrazolium bromide) to formazan blue. […] Doxorubicin was used as a standard chemotherapeutic agent (positive control). Cells were washed twice with warm PBS and further incubated with MTT (0.5 mg/mL) for 2 h at 37 °C. Blue formazan crystals were solubilized by adding 100 µL DMSO/well, and the optical density of colored solutions was subsequently read at 550 nm in a microplate reader Tecan infinite M200 Pro (Männedorf, Switzerland). The compounds 1–14 were dissolved in DMSO (stock solution at 100 mM) and further diluted to be evaluated at the following concentrations: 0 μM, 1 μM, 10 μM, 20 μM, 40 μM, 60 μM, 80 μM and 100 μM. Results are expressed as % of MTT reduction compared to untreated control conditions. The IC50 values were calculated using the GraphPad Prism 8.0.2 software (San Diego, CA, USA).

[2] = system: non-tumorigenic HEK-293 (embryonic kidney cells); experiment: MTT cell survival assay, non-tumorigenic HEK-293 cells; type: cell-based; details: Homo sapiens, HEK293; MTT test; cells incubated at 37 °C for 48 h (Table 1 footnote); mean ± SEM, n = 3
Description: as §1, §2

[3] = system: MCF-7 (mammary cancer cells); experiment: MTT cell survival assay, MCF-7 mammary cancer cells; type: cell-based; details: Homo sapiens, MCF7; MTT test; cells incubated at 37 °C for 48 h (Table 1 footnote); mean ± SEM, n = 3
Description: as §1, §2

[4] = system: DU-145 (prostate cancer cells); experiment: MTT cell survival assay, DU-145 prostate cancer cells; type: cell-based; details: Homo sapiens, MTT test, cells incubated at 37 °C for 48 h (Table 1 footnote), mean ± SEM, n = 3
Description: as §1, §2

[5] = system: HEK-293 cells/tumour cells; experiment: Mean selective index, HEK-293 vs tumour cells; type: cell-based, human; details: MSI = IC50 values HEK-293 cells/IC50 values tumour cells
Description: (§3) The cytotoxicity of the compounds 1–14 was assessed by following the reduction of MTT (3-(4,5-Dimethylthiazol-2-yl)-2,5-diphenyltetrazolium bromide) to formazan blue. Cells were seeded into 96-well plates at a density of 10,000 cells/well for 24 h and then they were further incubated for 24 h with or without the quinones. Doxorubicin was used as a standard chemotherapeutic agent (positive control). Cells were washed twice with warm PBS and further incubated with MTT (0.5 mg/mL) for 2 h at 37 °C. Blue formazan crystals were solubilized by adding 100 µL DMSO/well, and the optical density of colored solutions was subsequently read at 550 nm in a microplate reader Tecan infinite M200 Pro (Männedorf, Switzerland). The compounds 1–14 were dissolved in DMSO (stock solution at 100 mM) and further diluted to be evaluated at the following concentrations: 0 μM, 1 μM, 10 μM, 20 μM, 40 μM, 60 μM, 80 μM and 100 μM. Results are expressed as % of MTT reduction compared to untreated control conditions. The IC50 values were calculated using the GraphPad Prism 8.0.2 software (San Diego, CA, USA).

[6] = Half-wave potentials by cyclic voltammetry; type: physicochemical; details: for −E^I½ (mV): acetonitrile, platinum electrode, room temperature, negative of the potential
Description: Calculation of lipophilicity (ClogP) and molar refractivity (CMR) was assessed by using the ChemBioDraw Ultra 11.0 software and the obtained values are shown in Table 3. Redox potentials of 2-phenylamino-3-acyl-1,4-naphtoquinones 1–14 were measured by cyclic voltammetry at room temperature in acetonitrile as solvent using a platinum electrode and 0.1M tetraethylammonium tetrafluoroborate as the supporting electrolyte.

[7] = system: DU-145, MCF-7 and T24 cancer cells; experiment: Antiproliferative activity over DU-145, MCF-7 and T24 cancer cells; type: cell-based, human; details: summary of Table 1 (DU-145, MCF-7, T24)
Description: as §1, §3

| SMILES | IC50 [1] [µM] | IC50 [2] [µM] | IC50 [3] [µM] | IC50 [4] [µM] | MSI (mean selective index) [5] | −E^I½ (mV) [6] [mV] | half-wave potential ([6]; signed value) [mV] | IC50 ([7]; Homo sapiens, read-out: IC50 range over the cancer cell lines) [µM] | IC50 range over the cancer cell lines [7] |
| --- | --- | --- | --- | --- | --- | --- | --- | --- | --- |
| COc1cc(C(=O)C2=C(Nc3ccccc3)C(=O)c3ccccc3C2=O)ccc1O [Compound 9, 2-(Phenylamino)-3-(4-hydroxy-3-methoxybenzoyl)naphthalene-1,4-dione] | 13.8 ± 1.87 | 47.7 ± 3.29 | 5.81 ± 0.71 | 12.5 ± 0.55 | 4.5 | 595 |  |  |  |
| O=C(C1=C(Nc2ccccc2)C(=O)c2ccccc2C1=O)c1cccs1 [Compound 12] | 11.7 ± 0.89 | 24.8 ± 1.41 | 4.2 ± 0.06 | 6.97 ± 0.6 | 3.3 | 552 | −552 |  |  |
| COc1cccc2c1C(=O)c1c(O)c3c(c(O)c1C2=O)C[C@@](O)(C(=O)CO)C[C@@H]3O[C@H]1C[C@H](N)[C@H](O)[C@H](C)O1 [DOX, Doxorubicin, reference compound] | 0.46 ± 0.08 | 4.27 ± 0.34 | 0.33 ± 0.05 | 0.93 ± 0.06 | 7.5 |  |  |  |  |
| Cc1ccc(C(=O)C2=C(Nc3ccccc3)C(=O)c3ccccc3C2=O)cc1 [Compound 10, 2-(Phenylamino)-3-(4-methylbenzoyl)naphthalene-1,4-dione] | 21.5 ± 2.26 | 78.8 ± 5.53 | 14.2 ± 0.53 | 11.1 ± 0.57 | 5.0 | 770 |  |  |  |
| CCCCCC(=O)C1=C(Nc2ccccc2)C(=O)c2ccccc2C1=O [Compound 1, 2-(Phenylamino)-3-hexanoylnaphthalene-1,4-dione] | 86.7 ± 2.52 | 77.3 ± 3.66 | 62.68 ± 0.53 | 60.89 ± 0.34 | 1.1 | 475 |  | 60.9 to 86.7 |  |
| COc1ccc(C(=O)C2=C(Nc3ccccc3)C(=O)c3ccccc3C2=O)cc1 [Compound 6, 2-(Phenylamino)-3-(4-methoxybenzoyl)naphthalene-1,4-dione] | 13.3 ± 0.44 | 38.9 ± 3.3 | 11.8 ± 0.54 | 19.5 ± 0.95 | 2.6 | 800 |  |  |  |
| CCCCCCCCCC(=O)C1=C(Nc2ccccc2)C(=O)c2ccccc2C1=O [Compound 2, 2-(Phenylamino)-3-decanoylnaphthalene-1,4-dione] | > 100 | 79.8 ± 9.74 | > 100 | > 100 | < 0.8 | 480 |  |  | almost devoid of activity |
